Assay results reported in ChEMBL document CHEMBL3244149, “New synthetic routes to tilorone dihydrochloride and some of its analogues” (J Med Chem, 1978).
Active and inactive are the calls of the source. The calls are words filed in the database; no cut-off is given here.

Columns and labels:
Mus musculus [1] = assay: Induction of interferon production in CD-1 mouse serum at 100 mg/kg, ip after 18 hrs; type: functional, organism-based; set-up: dose 100 mg/kg
Mus musculus [2] = assay: Toxicity in CD-1 mouse at 100 mg/kg, ip; type: organism-based; set-up: dose 100 mg/kg, route intraperitoneal; conditions: in vivo
Mus musculus [3] = assay: Toxicity in CD-1 mouse at 300 mg/kg, ip; type: organism-based; set-up: dose 300 mg/kg, route intraperitoneal; conditions: in vivo
Mus musculus [4] = assay: Induction of interferon production in CD-1 mouse serum at 10 to 30 mg/kg, ip after 18 hrs; type: functional, organism-based

SMILES	Activity (Mus musculus [1])	Activity (Mus musculus [2])	Activity (Mus musculus [3])	Activity (Mus musculus [4])
CCN(CC)CCOc1ccc2c(c1)S(=O)(=O)c1cc(OCCN(CC)CC)ccc1-2	inactive	Non-toxic	Toxic	
CCN(CC)CCOc1cccc(C(=O)c2cccc(OCCN(CC)CC)c2)c1		Toxic	Toxic	inactive
CCN(CC)CCOc1ccc2c(c1)C(=O)c1cc(OCCN(CC)CC)ccc1-2	Active			
